The results in this text go back to US20250179073A1, “TRICYCLIC HETEROCYCLE COMPOUNDS AS IAP ANTAGONISTS” (Ascentage Pharma (Suzhou) Co., Ltd., priority 2022, published 2025).

Experiment [1] has as its system EVSA-T cells. In words: Cell proliferation assay (CellTiter-Glo), EVSA-T. Type of experiment: cell-based. To be noted: Homo sapiens, EVSA-T, 72 h, 72 h treatment, Celltiter-Glo luminescence. The essentials: (§1)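 Compounds tested over ten concentrations ([…]) for 72 h on EVSA-T cells in MEM/10% FBS and MDA-MB-231 cells in RPMI-1640/10% FBS, seeded at 10000/well. Luminescent CellTiter-Glo readout; IC50 fitted after normalisation to controls.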
For orientation: In ATP-based viability assays light output follows the ATP content of the culture.

Experiment [2] deals with MDA-MB-231 cells. In words: Cell proliferation assay (CellTiter-Glo), MDA-MB-231. In kind it is cell-based. To be noted: Homo sapiens, MDA-MB-231, 72 h, 72 h treatment, Celltiter-Glo luminescence. The essentials: as §1

In the case of `C[C@@H]1CN(CC(=O)N2CC(C)(C)c3c2cc(Cc2ccc(F)cc2)c2nn(Cc4cnccn4)c(=O)n32)[C@@H](CN2CCOC[C@H]2C)CN1` [Compound 193, 4-(4-fluorobenzyl)-8,8-dimethyl-6-(2-((2R,5R)-5-methyl-2-(((R)-3-methylmorpholino)methyl)piperazin-1-yl)acetyl)-2-(pyrazin-2-ylmethyl)-2,6,7,8-tetrahydro-1H-pyrrolo[2,3-e][1,2,4]triazolo[4,3-a]pyridin-1-one], the IC50 in experiment [1] was 0.006 µM; in experiment [2], 0.05 µM.
Take `C[C@@H]1CN(CC(=O)N2CC(C)(C)c3c2cc(Cc2ccc(F)cc2)c2nc(CC#N)nn32)[C@@H](CN2CCOC[C@H]2C)CN1` [Compound 196, 2-(4-(4-fluorobenzyl)-8,8-dimethyl-6-(2-((2R,5R)-5-methyl-2-(((R)-3-methylmorpholino)methyl)piperazin-1-yl)acetyl)-7,8-dihydro-6H-pyrrolo[2,3-e][1,2,4]triazolo[1,5-a]pyridin-2-yl)acetonitrile]: the IC50 worked out at 0.004 µM in experiment [1] and 0.043 µM in experiment [2].
For `C[C@@H]1CN(CC(=O)N2CC(C)(C)c3c2cc(Cc2ccc(F)cc2)c2nc(N4CCS(=O)(=O)CC4)nn32)[C@@H](CN2CCOC[C@H]2C)CN1` [Compound 199, 1-(2-(1,1-dioxidothiomorpholino)-4-(4-fluorobenzyl)-8,8-dimethyl-7,8-dihydro-6H-pyrrolo[2,3-e][1,2,4]triazolo[1,5-a]pyridin-6-yl)-2-((2R,5R)-5-methyl-2-(((R)-3-methylmorpholino)methyl)piperazin-1-yl)ethan-1-one], in that order: 0.006 µM and 0.02 µM.
For `C[C@@H]1CN(CC(=O)N2CC(C)(C)c3c2cc(Cc2ccc(F)cc2)c2nn(CCO)c(=O)n32)[C@@H](CN2CCOC[C@H]2C)CN1` [Compound 201, 4-(4-fluorobenzyl)-2-(2-hydroxyethyl)-8,8-dimethyl-6-(2-((2R,5R)-5-methyl-2-(((R)-3-methylmorpholino)methyl)piperazin-1-yl)acetyl)-2,6,7,8-tetrahydro-1H-pyrrolo[2,3-e][1,2,4]triazolo[4,3-a]pyridin-1-one], in that order: 0.011 µM and 0.026 µM.
For `C[C@@H]1CN(CC(=O)N2CC(C)(C)c3c2cc(Cc2ccc(F)cc2)c2ncnn32)[C@@H](CN2CCOC3CC32)CN1` (stereo partly drawn) [Compound 202, 2-((2S,5R)-2-((2-oxa-5-azabicyclo[4.1.0]heptan-5-yl)methy 1)-5-methylpiperazin-1-yl)-1-(4-(4-fluorobenzyl)-8,8-dimethyl-7,8-dihydro-6H-pyrrolo[2,3-e][1,2,4]triazolo[1,5-a]pyridin-6-yl)ethan-1-one], in that order: 0.017 µM and 0.034 µM.
On to `C[C@@H]1CN(CC(=O)N2CC(C)(C)c3c2cc(Cc2ccc(F)cc2)c2ncnn32)[C@@H](CN2CCN(C3COC3)C[C@H]2C)CN1` [Compound 203, 1-(4-(4-fluorobenzyl)-8,8-dimethyl-7,8-dihydro-6H-pyrrolo[2,3-e][1,2,4]triazolo[1,5-a]pyridin-6-yl)-2-((2R,5R)-5-methyl-2-(((R)-2-methyl-4-(oxetan-3-yl)piperazin-1-yl)methyl)piperazin-1-yl)ethan-1-one], for which the results for the IC50 in experiment [1] and in experiment [2] were 0.003 µM and 0.01 µM, respectively.
For `C[C@@H]1CN(CC(=O)N2CC(C)(C)c3c2cc(Cc2ccc(F)cc2)c2nc(N4CCOC4=O)nn32)[C@@H](CN2CCOC[C@H]2C)CN1` [Compound 204, 3-(4-(4-fluorobenzyl)-8,8-dimethyl-6-(2-((2R,5R)-5-methyl-2-(((R)-3-methylmorpholino)methyl)piperazin-1-yl)acetyl)-7,8-dihydro-6H-pyrrolo[2,3-e][1,2,4]triazolo[1,5-a]pyridin-2-yl)oxazolidin-2-one], in that order: 0.014 µM and 0.044 µM.
For `C[C@@H]1CN(CC(=O)N2CC(C)(C)c3c2cc(Cc2ccc(F)cc2)c2nc(C4COCCO4)nn32)[C@@H](CN2CCOC[C@H]2C)CN1` (stereo partly drawn) [Compound 206, 1-(2-(1,4-dioxan-2-yl)-4-(4-fluorobenzyl)-8,8-dimethyl-7,8-dihydro-6H-pyrrolo[2,3-e][1,2,4]triazolo[1,5-a]pyridin-6-yl)-2-((2R,5R)-5-methyl-2-(((R)-3-methylmorpholino)methyl)piperazin-1-yl)ethan-1-one], in that order: 0.002 µM and 0.018 µM.
As for `C[C@@H]1CN(CC(=O)N2CC(C)(C)c3c2cc(Cc2ccc(F)cc2)c2ncnn32)[C@@H](CN2Cc3cccc(F)c3C2=O)CN1` [Compound 207, 7-fluoro-2-(((2R,5R)-1-(2-(4-(4-fluorobenzyl)-8,8-dimethyl-7,8-dihydro-6H-pyrrolo[2,3-e][1,2,4]triazolo[1,5-a]pyridin-6-yl)-2-oxoethyl)-5-methylpiperazin-2-yl)methyl)isoindolin-1-one], the IC50 was determined as 0.002 µM in experiment [1] and 0.02 µM in experiment [2].
In the case of `C[C@@H]1CN(CC(=O)N2CC(C)(C)c3c2cc(Cc2ccc(F)cc2)c2nn(C4COC4)c(=O)n32)[C@@H](CN2CCOC[C@H]2C)CN1` [Compound 210, 4-(4-fluorobenzyl)-8,8-dimethyl-6-(2-((2R,5R)-5-methyl-2-(((R)-3-methylmorpholino)methyl)piperazin-1-yl)acetyl)-2-(oxetan-3-yl)-2,6,7,8-tetrahydro-1H-pyrrolo[2,3-e][1,2,4]triazolo[4,3-a]pyridin-1-one], the values for the IC50 in experiment [1] and in experiment [2] were 0.003 µM and 0.033 µM, respectively.
`C[C@@H]1CN(CC(=O)N2CC(C)(C)c3c2cc(Cc2ccc(F)cc2)c2nc(CN(C)C)nn32)[C@@H](CN2CCOC[C@H]2C)CN1` [Compound 212, 1-(2-((dimethylamino)methyl)-4-(4-fluorobenzyl)-8,8-dimethyl-7,8-dihydro-6H-pyrrolo[2,3-e][1,2,4]triazolo[1,5-a]pyridin-6-yl)-2-((2R,5R)-5-methyl-2-(((R)-3-methylmorpholino)methyl)piperazin-1-yl)ethan-1-one]: the IC50 in experiment [1] was determined as 0.007 µM; in experiment [2] it was 0.041 µM.
For `C[C@@H]1CN(CC(=O)N2CC(C)(C)c3c2cc(Cc2ccc(F)cc2)c2ncnn32)[C@@H](CN2CC3CCC2CO3)CN1` (stereo partly drawn) [Compound 214, 2-((2R,5R)-2-((2-oxa-5-azabicyclo[2.2.2]octan-5-yl)methyl)-5-methylpiperazin-1-yl)-1-(4-(4-fluorobenzyl)-8,8-dimethyl-7,8-dihydro-6H-pyrrolo[2,3-e][1,2,4]triazolo[1,5-a]pyridin-6-yl)ethan-1-one], in that order: 0.008 µM and 0.049 µM.
Turning to `C[C@@H]1CN(CC(=O)N2CC(C)(C)c3c2cc(Cc2ccc(F)cc2)c2nn([C@H]4CCOC4)c(=O)n32)[C@@H](CN2CCOC[C@H]2C)CN1` [Compound 218, 4-(4-fluorobenzyl)-8,8-dimethyl-6-(2-((2R,5R)-5-methyl-2-(((R)-3-methylmorpholino)methyl)piperazin-1-yl)acetyl)-2-((S)-tetrahydrofuran-3-yl)-2,6,7,8-tetrahydro-1H-pyrrolo[2,3-e][1,2,4]triazolo[4,3-a]pyridin-1-one], the results for the IC50 in experiment [1] and in experiment [2] were 0.002 µM and 0.047 µM, respectively.
For `C[C@@H]1CN(CC(=O)N2CC(C)(C)c3c2cc(Cc2ccc(F)cc2)c2nn(Cc4cccc(F)n4)c(=O)n32)[C@@H](CN2CCOC[C@H]2C)CN1` [Compound 219, 4-(4-fluorobenzyl)-2-((6-fluoropyridin-2-yl)methyl)-8,8-di methyl-6-(2-((2R,5R)-5-methyl-2-(((R)-3-methylmorpholino)methyl)piperazin-1-yl)acetyl)-2,6,7,8-tetrahydro-1H-pyrrolo[2,3-e][1,2,4]triazolo[4,3-a]pyridin-1-one], in that order: 0.002 µM and 0.047 µM.
For `C[C@@H]1CN(CC(=O)N2CC(C)(C)c3c2cc(Cc2ccc(F)cc2)c2nn(Cc4ncccc4F)c(=O)n32)[C@@H](CN2CCOC[C@H]2C)CN1` [Compound 220, 4-(4-fluorobenzyl)-2-((3-fluoropyridin-2-yl)methyl)-8,8-di methyl-6-(2-((2R,5R)-5-methyl-2-(((R)-3-methylmorpholino)methyl)piperazin-1-yl)acetyl)-2,6,7,8-tetrahydro-1H-pyrrolo[2,3-e][1,2,4]triazolo[4,3-a]pyridin-1-one], in that order: 0.002 µM and 0.068 µM.
For `CC(=O)c1nc2c(Cc3ccc(F)cc3)cc3c(n2n1)C(C)(C)CN3C(=O)CN1C[C@@H](C)NC[C@@H]1CN1CCOC[C@H]1C` [Compound 224, 1-(2-acetyl-4-(4-fluorobenzyl)-8,8-dimethyl-7,8-dihydro-6H-pyrrolo[2,3-e][1,2,4]triazolo[1,5-a]pyridin-6-yl)-2-((2R,5R)-5-methyl-2-(((R)-3-methylmorpholino)methyl)piperazin-1-yl)ethan-1-one], in that order: 0.002 µM and 0.12 µM.
As to `COC(=O)N(C)c1nc2c(Cc3ccc(F)cc3)cc3c(n2n1)C(C)(C)CN3C(=O)CN1C[C@@H](C)NC[C@@H]1CN1CCOC[C@H]1C` [Compound 225, methyl (4-(4-fluorobenzyl)-8,8-dimethyl-6-(2-((2R,5R)-5-methyl-2-(((R)-3-methylmorpholino)methyl)piperazin-1-yl)acetyl)-7,8-dihydro-6H-pyrrolo[2,3-e][1,2,4]triazolo[1,5-a]pyridin-2-yl)(methyl)carbamate], the IC50 in experiment [1] is 0.002 µM; in experiment [2], 0.05 µM.
Consider `COCCn1nc2c(Cc3ccc(F)cc3)cc3c(n2c1=O)C(C)(C)CN3C(=O)CN1C[C@@H](C)NC[C@@H]1CN1CCOC[C@H]1C` [Compound 227, 4-(4-fluorobenzyl)-2-(2-methoxyethyl)-8,8-dimethyl-6-(2-((2R,5R)-5-methyl-2-(((R)-3-methylmorpholino)methyl)piperazin-1-yl)acetyl)-2,6,7,8-tetrahydro-1H-pyrrolo[2,3-e][1,2,4]triazolo[4,3-a]pyridin-1-one], for which the IC50 in experiment [1] came out at 0.002 µM; in experiment [2] it was 0.082 µM.

The IC50 is the midpoint of a concentration-inhibition curve.
